Test results from the supplement of paper PMC10307832.

What was measured:
Test in all cases: relative viability (nuclei count vs DMSO), 5 days (fraction); higher = more cells survive
[1] = compound: C1/C(=C\C2=CC=CS2)/C(=O)/C(=C/C3=CC=CS3)/C1 + COc1cccc2cc(-c3nc([C@H]4CC[C@H](C(=O)O)CC4)n4ncnc(N)c34)[nH]c12 [OSI-027] (partner 0.5 µM)
In short: (§1)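 Relative viability divides the nuclei count in treated wells by that in vehicle wells. Lung cancer cell lines were seeded in 1536-well plates, dosed by pin tool the next day, and fixed and stained after 5 days in one step with final 0.05% Triton X-100, 1% formaldehyde and 1 ug/ml Hoechst. Dosing was a single drug or a fixed anchor-drug dose plus five library-drug doses (not always all listed) in √10 steps, and values are medians of duplicate plates imaged at 4×.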

[2] = compound: C[C@]12O[C@H](C[C@]1(O)CO)n1c3ccccc3c3c4c(c5c6ccccc6n2c5c31)CNC4=O [Lestaurtinib] + N=C(N)NC(=N)NCCc1ccccc1 [Phenformin] (partner 250 µM)
In short: as §1

Lestaurtinib + OSI-027 = compound: C[C@]12O[C@H](C[C@]1(O)CO)n1c3ccccc3c3c4c(c5c6ccccc6n2c5c31)CNC4=O [Lestaurtinib] + COc1cccc2cc(-c3nc([C@H]4CC[C@H](C(=O)O)CC4)n4ncnc(N)c34)[nH]c12 [OSI-027] (partner 0.5 µM)
In short: as §1

TPCA-1 + AZD7762 = compound: C1=CC(=CC=C1C2=CC(=C(S2)NC(=O)N)C(=O)N)F [TPCA-1] + NC(=O)Nc1cc(-c2cccc(F)c2)sc1C(=O)N[C@H]1CCCNC1 [AZD7762] (partner 0.2 µM)
In short: as §1

Row | Cell Line | relative viability ([1]; first compound 0.2 µM) | relative viability ([1]; first compound 0.6325 µM) | relative viability ([1]; first compound 2 µM) | relative viability ([1]; first compound 6.325 µM) | relative viability ([1]; first compound 20 µM) | relative viability ([2]; first compound 0.005 µM) | relative viability ([2]; first compound 0.01581 µM) | relative viability ([2]; first compound 0.05 µM) | relative viability ([2]; first compound 0.1581 µM) | relative viability ([2]; first compound 0.5 µM) | relative viability (Lestaurtinib + OSI-027; first compound 0.005 µM) | relative viability (Lestaurtinib + OSI-027; first compound 0.01581 µM) | relative viability (Lestaurtinib + OSI-027; first compound 0.05 µM) | relative viability (Lestaurtinib + OSI-027; first compound 0.1581 µM) | relative viability (Lestaurtinib + OSI-027; first compound 0.5 µM) | relative viability (TPCA-1 + AZD7762; first compound 0.04 µM) | relative viability (TPCA-1 + AZD7762; first compound 0.1265 µM) | relative viability (TPCA-1 + AZD7762; first compound 0.4 µM) | relative viability (TPCA-1 + AZD7762; first compound 1.265 µM) | relative viability (TPCA-1 + AZD7762; first compound 4 µM)
1 | PC-3 [JPC-3] | 0.774 | 0.715 | 0.719 | 0.552 | 0.778 | 0.434 | 0.504 | 0.352 | 0.477 | 0.386 | 0.809 | 0.803 | 0.662 | 0.65 | 0.439 | 0.844 | 0.802 | 0.85 | 0.823 | 0.655
2 | H3255 | 0.585 | 0.589 | 0.541 | 0.568 | 0.566 | 0.313 | 0.315 | 0.379 | 0.286 | 0.294 | 0.63 | 0.515 | 0.56 | 0.36 | 0.276 | 0.925 | 0.835 | 0.863 | 0.688 | 0.694
3 | EMC-BAC-2 | 0.411 | 0.383 | 0.432 | 0.337 | 0.389 | 0.476 | 0.567 | 0.424 | 0.364 | 0.26 | 0.38 | 0.365 | 0.363 | 0.308 | 0.263 | 1.15 | 1.09 | 1.27 | 1.03 | 0.72
4 | SW 900 | 0.63 | 0.492 | 0.612 | 0.531 | 0.796 | 0.69 | 0.715 | 0.63 | 0.803 | 0.4 | 0.561 | 0.702 | 0.623 | 0.522 | 0.527 |  |  | 0.685 | 0.631 | 0.586
5 | CAL-12T | 0.64 | 0.886 | 0.709 | 0.335 | 0.547 | 0.488 | 0.622 | 0.375 | 0.32 | 0.189 | 0.699 | 0.698 | 0.515 | 0.36 | 0.278 | 0.702 | 0.583 | 0.667 | 0.565 | 0.555
6 | NCI-H650 | 0.578 | 0.465 | 0.591 | 0.53 | 0.485 | 0.427 | 0.415 | 0.362 | 0.265 | 0.314 | 0.536 | 0.6 | 0.441 | 0.364 | 0.313 | 1.03 | 0.895 | 1.1 | 0.541 | 0.906
7 | NCI-H1355 | 0.481 | 0.42 | 0.412 | 0.335 | 0.424 | 0.455 | 0.465 | 0.374 | 0.391 | 0.263 | 0.387 | 0.438 | 0.362 | 0.309 | 0.286 | 0.831 | 0.7 | 0.756 | 0.675 | 0.707
8 | NCI-H838 | 0.412 | 0.38 | 0.409 | 0.491 | 0.365 | 0.508 | 0.543 | 0.475 | 0.227 | 0.131 | 0.399 | 0.441 | 0.397 | 0.446 | 0.228 | 0.972 | 0.855 | 0.935 | 0.801 | 0.886
9 | LK-2 | 0.223 | 0.226 | 0.266 | 0.216 | 0.2 | 0.542 | 0.738 | 0.275 | 0.233 | 0.217 | 0.158 | 0.224 | 0.176 | 0.185 | 0.173 | 0.593 |  | 0.53 | 0.392 | 0.131
10 | NCI-H322M | 0.559 | 0.658 | 0.652 | 0.564 | 0.516 | 0.689 | 0.694 | 0.478 | 0.517 | 0.393 | 0.561 | 0.525 | 0.427 | 0.498 | 0.372 | 0.608 | 0.555 | 0.538 | 0.579 | 0.519
11 | NCI-H1395 | 0.672 | 0.614 | 0.772 | 0.597 | 0.643 | 0.451 | 0.432 | 0.422 | 0.484 | 0.312 | 0.546 | 0.655 | 0.5 | 0.482 | 0.374 | 0.398 | 0.378 | 0.381 | 0.37 | 0.444
12 | NCI-H441 | 0.795 | 0.661 | 0.548 | 0.602 | 0.596 | 0.885 | 0.854 | 0.533 | 0.767 | 0.555 | 0.597 | 0.589 | 0.279 | 0.342 | 0.303 | 1.21 | 0.915 | 1.19 | 1.04 | 1
